According to patent publication US11414387B2, “Oxoacridinyl acetic acid derivatives and methods of use” (Stingthera, Inc., priority 2017, dated 2022):

How the values were obtained:
hSTING-WT = hSTING-WT (Homo sapiens (Human), UniProt Q86WV6, H232R); test: Radiometric filtration binding competition assay, hSTING-WT
hSTING-HAQ [1] = target: T1, hSTING-HAQ (Homo sapiens (Human), UniProt Q86WV6, G230A/H232R/R293Q); test: STING differential scanning fluorimetry (DSF) assay, HAQ human STING; conditions: HAQ human STING aa140-379, net shift in melting temperature
Protocol: (§1) A STING DSF assay was performed to determine protein thermostability shift in response to small molecule ligand binding. A STING thermostability shift assay based on differential scanning fluorimetry was used to measure (1) the net shift in melting temperature (ΔTm)between the apo and ligand-bound states of the STING protein and (2) the concentration of the thermal denaturation transition (EC50) as a surrogate measure of binding affinity (K). […] Protein in assay buffer was transferred to a 384 well plate and incubated with the hydrophobic fluorescent dye SYBR Orange. A temperature ramp was applied to the plate and the resulting dye fluorescence was plotted as a function of temperature. The first derivative of this function (dF/dT) was then used to extrapolate the melting temperature of the protein at various concentrations of compound and determine the thermal denaturation profile of a protein/compound complex.
(§2) • 1. Protein construct (affinity tag removal vs SUMO-fusion construct) • 2. Protein concentration • 3. Dye concentration • 4. Buffer • 5. Thermal ramp velocity • 6. DMSO tolerance • 7. Compound titration parameters • 8. […] 5 μM purified Target STING Protein • 3. 8 μM Sypro Orange Dye • 4. Buffer: 100 mM NaCl, 30 mM HEPES, pH 7.5 • 5. Thermal Ramp: 0.5° C./min • 6. <1% DMSO • 7. 11 point, 2 fold dilution, duplicate, 300 μM high concentrations • 8.

mSTING = mSTING (Mus musculus, UniProt Q3TBT3); test: Radiometric filtration binding competition assay, mSTING
STING protein = STING protein (Homo sapiens (Human), UniProt Q86WV6, H232R); test: Cell based reporter assay of IRF activation (IRF-luciferase), THP1-dual-KI R232; conditions: read-out: THP1-dual-KI R232_IRF(Luciferase)_Activity Maximum measured (%)
hSTING-HAQ [2] = target: T1, hSTING-HAQ; test: Radiometric filtration binding competition assay, hSTING-HAQ
Protocol: A radiometric filtration binding competition assay was performed to quantify the binding affinity of compounds of the present application for the human or mouse STING protein, or associated HAQ human isoform. […] The resulting dose response was fit by non-linear regression to determine an IC50 value, from which a Ki value for each compound was extrapolated.
The resulting complexes were then filtered, dried, and scintillation fluid was added and the remaining radio signal was measured to determine the degree of compound ligand inhibition. This assay format was optimized for both the WT and HAQ isoforms of the human protein and the mouse orthologue protein.
Probe Concentration: Minimum concentration that achieved max assay window • g. Assay Format: Scintillation Proximity Bead or Filtration Binding Plate • h. […] Assay incubation times for successive incubation steps
WT-hSWAT: WT_FBA_HIS-SUMO-hSWAT IC50 (μM) (“WT”=Wild-type); HAQ-hSWAT: HAQ_FBA_HIS-SUMO-hSWAT IC50 (μM) (“HAQ”=human HAQ allele of STING protein); and WT-mSWAT: MOUSE_FBA_HIS-SUMO-mnSWAT IC50 (μM) which is the mouse isoform of STING protein.

hSTING-R232 = hSTING-R232 (Homo sapiens (Human), UniProt Q86WV6, H232R); test: STING differential scanning fluorimetry (DSF) assay, WT human STING; conditions: WT (R232) human STING aa140-379, net shift in melting temperature
mSTING-R232 = mSTING-R232 (Mus musculus, UniProt Q3TBT3); test: STING differential scanning fluorimetry (DSF) assay, mouse STING; conditions: net shift in melting temperature
Protocol: as §1, §2

hSTING-CTD = hSTING-CTD (Homo sapiens (Human), UniProt Q86WV6); test: Human STING protein FP competition concentration response assay; type: binding
In short: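 Compound, serially diluted 2-fold over 14 concentrations, competes with 2′-Fluo-AHC-c-di-GMP (30 nM) for binding to hSTING-CTD (10 uM) in PBS with 3.35% DMSO at room temperature for 10-20 min. Anisotropy change gives IC50 by sigmoidal four-parameter regression.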

T1 sequence (Q86WV6 140-379 G230A/H232R/R293Q): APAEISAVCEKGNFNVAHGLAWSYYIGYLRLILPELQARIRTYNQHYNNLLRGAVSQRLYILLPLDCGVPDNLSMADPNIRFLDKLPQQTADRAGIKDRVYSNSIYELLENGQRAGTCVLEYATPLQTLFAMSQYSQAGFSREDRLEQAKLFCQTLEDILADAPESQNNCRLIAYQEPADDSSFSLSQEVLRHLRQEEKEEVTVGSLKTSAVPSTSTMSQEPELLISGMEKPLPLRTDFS
Chain of hSTING-WT (Q86WV6 140-379 H232R): as the sequence (Q86WV6 140-379 G230A/H232R/R293Q) above, with A91G, Q154R counted along it
Chain of hSTING-R232 (Q86WV6 140-379 H232R): as the sequence (Q86WV6 140-379 G230A/H232R/R293Q) above, with A91G, Q154R counted along it
Chain of STING protein (Q86WV6 whole entry H232R): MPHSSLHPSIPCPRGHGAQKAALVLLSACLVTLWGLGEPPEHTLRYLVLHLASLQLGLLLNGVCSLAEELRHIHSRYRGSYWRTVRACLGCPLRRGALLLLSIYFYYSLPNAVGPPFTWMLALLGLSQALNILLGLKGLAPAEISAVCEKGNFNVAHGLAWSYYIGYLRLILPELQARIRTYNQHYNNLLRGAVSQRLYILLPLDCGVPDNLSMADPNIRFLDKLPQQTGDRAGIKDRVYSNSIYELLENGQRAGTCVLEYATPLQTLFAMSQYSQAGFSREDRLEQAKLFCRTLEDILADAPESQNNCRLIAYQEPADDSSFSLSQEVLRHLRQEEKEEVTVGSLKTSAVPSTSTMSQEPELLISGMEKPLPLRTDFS
Chain of hSTING-CTD (Q86WV6 135-379): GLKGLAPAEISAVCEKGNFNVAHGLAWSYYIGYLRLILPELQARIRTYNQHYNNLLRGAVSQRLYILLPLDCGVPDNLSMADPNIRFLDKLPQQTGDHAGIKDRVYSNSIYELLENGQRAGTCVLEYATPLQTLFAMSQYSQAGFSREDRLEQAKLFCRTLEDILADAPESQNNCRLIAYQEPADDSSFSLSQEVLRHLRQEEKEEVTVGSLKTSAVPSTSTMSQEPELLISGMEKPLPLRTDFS

Row | SMILES | IC50 (hSTING-WT) [µM] | HAQ_DSF_hSWAT Tm Shift (° C.) (hSTING-HAQ [1]) | IC50 (mSTING) [µM] | Emax (STING protein) [%] | IC50 (hSTING-HAQ [2]) [µM] | WT_DSF_hSWAT Tm Shift (° C.) (hSTING-R232) | MOUSE DSF_6xHIS-SUMO Tm Shift (° C.) (mSTING-R232) | IC50 (hSTING-CTD) [µM]
1 | COc1c(Cl)ccc2c(=O)c3ccc(C4CCCCC4)cc3n(CC(=O)O)c12 [Compound 220] | < 20 | D (“D” > 7° C.) | 20 to 100 | > 50 | 20 to 100 | D (“D” > 7° C.) | – | –
2 | O=C(O)Cn1c2cc(-c3ccc(O)cc3)ccc2c(=O)c2ccc(Cl)c(Cl)c21 [Compound 223] | 20 to 100 | D (“D” > 7° C.) | < 20 | < 5 | 20 to 100 | C (“C” = 2-7° C,) | – | –
3 | O=C(O)Cn1c2cc(Nc3ccc(F)cc3)ccc2c(=O)c2ccc(Cl)c(Cl)c21 [Compound 218] | < 20 | D (“D” > 7° C.) | < 20 | > 50 | 20 to 100 | – | D (“D” > 15° C.) | –
4 | O=C(O)Cn1c2cc(Nc3ccc(F)cc3F)ccc2c(=O)c2ccc(Cl)c(Cl)c21 [Compound 221] | < 20 | D (“D” > 7° C.) | – | > 50 | 20 to 100 | D (“D” > 7° C.) | – | –
5 | COc1c(Cl)ccc2c(=O)c3ccc(Nc4ccccc4)cc3n(CC(=O)O)c12 [Compound 207] | < 20 | D (“D” > 7° C.) | < 20 | > 50 | 20 to 100 | D (“D” > 7° C.) | D (“D” > 15° C.) | –
6 | O=C(O)Cn1c2cc(Nc3cnccn3)ccc2c(=O)c2ccc(Cl)c(Cl)c21 [Compound 217] | 20 to 100 | D (“D” > 7° C.) | < 20 | > 50 | 100 to 300 | D (“D” > 7° C.) | – | –
7 | O=C(O)Cn1c2cc(C3CCCCC3)ccc2c(=O)c2ccc(Cl)c(Cl)c21 [Compound 115] | 20 to 100 | C (“C” = 2-7° C,) | < 20 | 25 to 50 | 100 to 300 | C (“C” = 2-7° C,) | D (“D” > 15° C.) | < 100

Results, then the compound that gave them:

Row | IC50 (hSTING-WT) [µM] | HAQ_DSF_hSWAT Tm Shift (° C.) (hSTING-HAQ [1]) | IC50 (mSTING) [µM] | Emax (STING protein) [%] | IC50 (hSTING-HAQ [2]) [µM] | WT_DSF_hSWAT Tm Shift (° C.) (hSTING-R232) | MOUSE DSF_6xHIS-SUMO Tm Shift (° C.) (mSTING-R232) | IC50 (hSTING-CTD) [µM] | SMILES
8 | < 20 | D (“D” > 7° C.) | < 20 | > 50 | 20 to 100 | D (“D” > 7° C.) | D (“D” > 15° C.) | – | O=C(O)Cn1c2cc(C3CCCCC3)ccc2c(=O)c2ccc(Cl)c(Br)c21 [Compound 147]
9 | 20 to 100 | A (“A” < 0° C.) | < 20 | 5 to 25 | 20 to 100 | A (“A” < 0° C.) | C (“C” = 5-15° C.) | – | CC1(C)CC=C(c2ccc3c(=O)c4ccc(Cl)c(Cl)c4n(CC(=O)O)c3c2)CC1 [Compound 159]
10 | 20 to 100 | D (“D” > 7° C.) | 20 to 100 | > 50 | 100 to 300 | D (“D” > 7° C.) | C (“C” = 5-15° C.) | < 100 | CC(C)c1ccc2c(=O)c3ccc(Cl)c(Br)c3n(CC(=O)O)c2c1 [Compound 111]
11 | < 20 | D (“D” > 7° C.) | < 20 | > 50 | 20 to 100 | D (“D” > 7° C.) | D (“D” > 15° C.) | – | O=C(O)Cn1c2cc(NC3CCCCC3)ccc2c(=O)c2ccc(Cl)c(Br)c21 [Compound 110]
12 | < 20 | D (“D” > 7° C.) | < 20 | > 50 | < 20 | D (“D” > 7° C.) | – | – | CSc1c(Cl)ccc2c(=O)c3ccc(C(C)(C)C)cc3n(CC(=O)O)c12 [Compound 215]
13 | < 20 | D (“D” > 7° C.) | < 20 | > 50 | 20 to 100 | D (“D” > 7° C.) | – | – | COc1c(Cl)ccc2c(=O)c3ccc(C(C)(C)C)cc3n(CC(=O)O)c12 [Compound 204]
14 | 20 to 100 | C (“C” = 2-7° C,) | < 20 | < 5 | 20 to 100 | B (“B” = 0-2° C.) | C (“C” = 5-15° C.) | – | Cc1cccc(-c2ccc3c(=O)c4ccc(Cl)c(Cl)c4n(CC(=O)O)c3c2)c1 [Compound 151]
15 | 20 to 100 | D (“D” > 7° C.) | < 20 | > 50 | 20 to 100 | D (“D” > 7° C.) | D (“D” > 15° C.) | – | CC(C)(C)c1ccc2c(=O)c3ccc(Cl)c(Br)c3n(CC(=O)O)c2c1 [Compound 176]
